The results in this text go back to ChEMBL document CHEMBL4507328, “Data for DCP probe BAY-390” (2021).

The target in test [1] is D(1A) dopamine receptor (Homo sapiens) (UniProt P21728). As to conditions: Compound concentration 10.0 uM.
For test [2], the target named is ANK_REP_REGION domain-containing protein (Cavia porcellus, UniProt H0VJD1). The test can be described thus: FLIPR Ca2+ assay (guinea pig TRPA1).
Test [3] concerns the target Type-1 angiotensin II receptor (Homo sapiens) (UniProt P30556). As to conditions: Compound concentration 10.0 uM.
Test [4] deals with Delta-type opioid receptor (Homo sapiens) (UniProt P41143). As to conditions: Compound concentration 10.0 uM.
The target of test [5] is Beta-3 adrenergic receptor (Homo sapiens) (UniProt P13945). As to conditions: Compound concentration 10.0 uM.
Test [6] addresses Sodium-dependent noradrenaline transporter (Homo sapiens) (UniProt P23975). As to conditions: Compound concentration 10.0 uM.
The next test is filed under the species Oryctolagus cuniculus. Description: Inhibition of Purinergic P2X at 10 µM in the Eurofins-Panlabs radioligand binding assay (Eurofins_assay_268700). The class given is protein assay. Conditions: Compound concentration 10.0 uM.
In test [7] the target is Endothelin receptor type B (Homo sapiens) (UniProt P24530). Conditions: Compound concentration 10.0 uM.
Test [8] addresses T1, 5-hydroxytryptamine receptor 2A (Homo sapiens, UniProt P28223). Conditions: Compound concentration 10.0 uM.
The target of test [9] is Adenosine receptor A1 (Homo sapiens) (UniProt P30542). Conditions: Compound concentration 10.0 uM.
Test [10] addresses T1, 5-hydroxytryptamine receptor 2A. Description: GPCRScan assay: inhibition of 5-HT2A. The arrangement: radioligand conc. used [nm] 1.2 – 2.4, parental cells HEKT.
Test [11] has as its target Type-2 angiotensin II receptor (Homo sapiens) (UniProt P50052). Conditions: Compound concentration 10.0 uM.
In test [12] the target is Mu-type opioid receptor (Homo sapiens) (UniProt P35372). Conditions: Compound concentration 10.0 uM.
Test [13] concerns the target Sigma non-opioid intracellular receptor 1 (Homo sapiens) (UniProt Q99720). Conditions: Compound concentration 10.0 uM.
The target in test [14] is Alpha-2A adrenergic receptor (Homo sapiens) (UniProt P08913). Conditions: Compound concentration 10.0 uM.
Another test addresses Estrogen receptor (Homo sapiens, UniProt P03372). The test can be described thus: Inhibition of Estrogen ERalpha at compound concentration of 10.0 uM in the Eurofins-Panlabs radioligand binding assay (Eurofins_assay_226010). More on the design: ligand concentration 0.5 nM, non-specific ligand with concentration 1 uM Diethylstilbestrol, incubation time 2 h, incubation temperature 25 C.

In test [15] the target is Growth hormone secretagogue receptor type 1 (Homo sapiens) (UniProt Q92847). As to conditions: Compound concentration 10.0 uM.
Test [16] addresses Progesterone receptor (Homo sapiens) (UniProt P06401). As to conditions: Compound concentration 10.0 uM.
In test [17] the target is B2 bradykinin receptor (Homo sapiens) (UniProt P30411). Conditions: Compound concentration 10.0 uM.
Test [18] has as its target Histamine H1 receptor (Homo sapiens) (UniProt P35367). As to conditions: Compound concentration 10.0 uM.
In test [19] the target is Sodium-dependent serotonin transporter (Homo sapiens) (UniProt P31645). Conditions: Compound concentration 10.0 uM.
In test [20] the target is T2, 5-hydroxytryptamine receptor 2C (Homo sapiens) (UniProt P28335).
T2 sequence (whole entry): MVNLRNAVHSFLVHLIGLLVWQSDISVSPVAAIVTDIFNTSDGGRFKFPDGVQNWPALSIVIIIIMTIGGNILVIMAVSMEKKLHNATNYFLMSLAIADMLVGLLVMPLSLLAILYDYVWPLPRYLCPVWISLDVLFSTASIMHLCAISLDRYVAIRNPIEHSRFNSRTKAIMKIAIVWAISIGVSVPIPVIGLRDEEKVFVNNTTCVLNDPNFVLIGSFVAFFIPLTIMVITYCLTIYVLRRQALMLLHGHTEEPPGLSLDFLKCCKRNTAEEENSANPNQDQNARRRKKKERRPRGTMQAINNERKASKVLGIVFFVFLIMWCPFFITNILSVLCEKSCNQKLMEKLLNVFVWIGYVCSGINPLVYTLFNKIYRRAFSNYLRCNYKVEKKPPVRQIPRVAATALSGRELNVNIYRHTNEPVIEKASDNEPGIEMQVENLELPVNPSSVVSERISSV
Conditions: Compound concentration 10.0 uM.

Test [21] deals with Glutamate NMDA receptor (Rattus norvegicus) (UniProt P35439+Q00959+Q00960+Q00961+Q62645+Q8VHN2+Q9R1M7). Conditions: Compound concentration 10.0 uM.
Test [22] concerns the target T3, 5-hydroxytryptamine receptor 1A (Homo sapiens) (UniProt P08908).
T3 sequence (whole entry): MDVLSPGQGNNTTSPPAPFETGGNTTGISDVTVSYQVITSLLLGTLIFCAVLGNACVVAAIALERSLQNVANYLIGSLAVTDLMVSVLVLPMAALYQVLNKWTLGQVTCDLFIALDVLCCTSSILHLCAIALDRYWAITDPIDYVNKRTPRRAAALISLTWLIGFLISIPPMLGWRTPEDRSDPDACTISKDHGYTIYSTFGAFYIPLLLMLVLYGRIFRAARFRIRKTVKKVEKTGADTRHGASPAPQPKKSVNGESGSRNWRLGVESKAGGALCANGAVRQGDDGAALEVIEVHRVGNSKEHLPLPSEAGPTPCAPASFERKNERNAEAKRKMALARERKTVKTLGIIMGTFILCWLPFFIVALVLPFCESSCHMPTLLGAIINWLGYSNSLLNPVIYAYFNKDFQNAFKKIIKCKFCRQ
As to conditions: Compound concentration 10.0 uM.

The species entered for a further test is Rattus norvegicus. Conditions: Compound concentration 10.0 uM.
In test [23] the target is Beta-1 adrenergic receptor (Homo sapiens) (UniProt P08588). As to conditions: Compound concentration 10.0 uM.
In test [24] the target is Glutamate receptor ionotropic, kainate (Rattus norvegicus) (UniProt P22756+Q01812+P42260+P42264+Q63273). The test can be described thus: Inhibition of Glutamate, Kainate at 10 µM in the Eurofins-Panlabs radioligand binding assay (Eurofins_assay_232700). As to conditions: Compound concentration 10.0 uM.
Test [25] deals with 5-hydroxytryptamine receptor 2B (Homo sapiens) (UniProt P41595). As to conditions: Compound concentration 10.0 uM.
The target of test [26] is Adenosine receptor A3 (Homo sapiens) (UniProt P0DMS8). Conditions: Compound concentration 10.0 uM.
For test [27], the target named is 5-hydroxytryptamine receptor 6 (Homo sapiens) (UniProt P50406). Conditions: Compound concentration 10.0 uM.
Test [28] addresses D(2) dopamine receptor (Homo sapiens) (UniProt P14416). Conditions: Compound concentration 10.0 uM.
Test [29] concerns the target Histamine H3 receptor (Homo sapiens) (UniProt Q9Y5N1). Conditions: Compound concentration 10.0 uM.

Active and inactive are the calls of the source. No cut-off for these calls is given here.

T1 sequence (P28223 whole entry): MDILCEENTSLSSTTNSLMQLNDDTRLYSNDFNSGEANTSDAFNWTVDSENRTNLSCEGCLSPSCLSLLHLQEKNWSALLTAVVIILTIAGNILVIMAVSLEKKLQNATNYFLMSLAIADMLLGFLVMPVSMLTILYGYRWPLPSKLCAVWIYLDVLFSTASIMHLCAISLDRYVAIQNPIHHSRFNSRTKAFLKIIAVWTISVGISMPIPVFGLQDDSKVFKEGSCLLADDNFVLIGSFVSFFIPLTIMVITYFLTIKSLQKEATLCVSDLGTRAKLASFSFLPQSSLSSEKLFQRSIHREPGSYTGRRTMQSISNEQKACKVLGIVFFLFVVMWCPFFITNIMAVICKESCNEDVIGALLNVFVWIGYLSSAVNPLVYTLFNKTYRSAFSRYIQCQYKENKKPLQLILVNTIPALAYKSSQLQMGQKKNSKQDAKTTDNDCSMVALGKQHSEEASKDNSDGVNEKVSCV
Sequence of Estrogen receptor (P03372 whole entry): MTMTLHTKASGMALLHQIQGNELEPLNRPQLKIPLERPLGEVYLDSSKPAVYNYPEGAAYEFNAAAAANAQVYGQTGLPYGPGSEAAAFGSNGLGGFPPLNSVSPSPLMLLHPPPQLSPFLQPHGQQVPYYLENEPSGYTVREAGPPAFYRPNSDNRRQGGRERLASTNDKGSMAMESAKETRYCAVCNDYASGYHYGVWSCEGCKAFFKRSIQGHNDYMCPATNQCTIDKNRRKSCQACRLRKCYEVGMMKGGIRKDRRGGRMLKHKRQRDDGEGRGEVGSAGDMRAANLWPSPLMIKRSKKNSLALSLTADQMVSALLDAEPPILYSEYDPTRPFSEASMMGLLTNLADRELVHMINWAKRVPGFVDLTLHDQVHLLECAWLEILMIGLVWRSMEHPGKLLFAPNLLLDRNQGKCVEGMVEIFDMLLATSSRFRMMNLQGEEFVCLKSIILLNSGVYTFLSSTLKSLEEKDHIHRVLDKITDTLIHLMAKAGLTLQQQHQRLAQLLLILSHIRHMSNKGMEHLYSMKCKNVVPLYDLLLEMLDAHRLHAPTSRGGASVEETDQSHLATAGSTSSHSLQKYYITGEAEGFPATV
Sequence of Histamine H3 receptor (Homo sapiens) (Q9Y5N1 whole entry): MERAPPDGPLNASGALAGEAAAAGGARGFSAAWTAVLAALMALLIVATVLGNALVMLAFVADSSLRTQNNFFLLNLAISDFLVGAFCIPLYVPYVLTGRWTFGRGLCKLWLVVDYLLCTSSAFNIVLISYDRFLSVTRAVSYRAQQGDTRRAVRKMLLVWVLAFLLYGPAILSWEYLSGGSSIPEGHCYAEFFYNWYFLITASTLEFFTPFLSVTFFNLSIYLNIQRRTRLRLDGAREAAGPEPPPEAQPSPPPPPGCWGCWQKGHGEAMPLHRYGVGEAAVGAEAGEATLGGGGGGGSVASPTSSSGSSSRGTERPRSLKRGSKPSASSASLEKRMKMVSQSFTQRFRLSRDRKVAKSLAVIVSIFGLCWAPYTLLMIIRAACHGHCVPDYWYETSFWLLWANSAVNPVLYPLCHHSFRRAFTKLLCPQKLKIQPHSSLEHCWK
Sequence of B2 bradykinin receptor (Homo sapiens) (P30411 whole entry): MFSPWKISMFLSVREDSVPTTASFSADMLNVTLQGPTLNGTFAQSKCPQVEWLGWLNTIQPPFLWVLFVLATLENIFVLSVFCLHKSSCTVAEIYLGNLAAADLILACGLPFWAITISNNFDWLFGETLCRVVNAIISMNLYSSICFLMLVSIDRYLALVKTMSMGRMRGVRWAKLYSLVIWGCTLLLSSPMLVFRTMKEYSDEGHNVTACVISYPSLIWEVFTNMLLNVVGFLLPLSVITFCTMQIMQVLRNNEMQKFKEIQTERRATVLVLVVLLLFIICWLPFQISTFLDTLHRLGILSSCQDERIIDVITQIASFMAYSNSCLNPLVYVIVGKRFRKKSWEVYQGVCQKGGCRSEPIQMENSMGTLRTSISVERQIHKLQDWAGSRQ
Sequence of Adenosine receptor A1 (Homo sapiens) (P30542 whole entry): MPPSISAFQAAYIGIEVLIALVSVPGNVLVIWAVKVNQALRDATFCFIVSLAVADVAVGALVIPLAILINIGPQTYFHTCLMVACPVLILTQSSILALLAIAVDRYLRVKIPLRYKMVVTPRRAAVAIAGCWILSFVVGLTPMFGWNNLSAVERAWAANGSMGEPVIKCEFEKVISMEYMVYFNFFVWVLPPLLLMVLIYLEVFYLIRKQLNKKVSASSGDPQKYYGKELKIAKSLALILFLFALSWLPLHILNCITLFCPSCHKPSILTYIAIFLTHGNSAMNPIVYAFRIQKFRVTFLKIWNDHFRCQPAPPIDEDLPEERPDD
Sequence of Growth hormone secretagogue receptor type 1 (Homo sapiens) (Q92847 whole entry): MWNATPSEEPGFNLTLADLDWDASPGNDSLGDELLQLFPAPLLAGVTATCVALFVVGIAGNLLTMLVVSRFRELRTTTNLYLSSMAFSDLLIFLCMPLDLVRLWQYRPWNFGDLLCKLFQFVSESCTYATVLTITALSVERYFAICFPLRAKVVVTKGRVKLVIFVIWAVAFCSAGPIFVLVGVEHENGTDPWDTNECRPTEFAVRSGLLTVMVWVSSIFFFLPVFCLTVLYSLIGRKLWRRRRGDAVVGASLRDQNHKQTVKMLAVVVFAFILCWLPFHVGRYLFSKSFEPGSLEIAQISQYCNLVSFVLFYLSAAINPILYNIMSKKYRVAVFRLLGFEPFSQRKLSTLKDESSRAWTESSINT
Sequence of 5-hydroxytryptamine receptor 6 (Homo sapiens) (P50406 whole entry): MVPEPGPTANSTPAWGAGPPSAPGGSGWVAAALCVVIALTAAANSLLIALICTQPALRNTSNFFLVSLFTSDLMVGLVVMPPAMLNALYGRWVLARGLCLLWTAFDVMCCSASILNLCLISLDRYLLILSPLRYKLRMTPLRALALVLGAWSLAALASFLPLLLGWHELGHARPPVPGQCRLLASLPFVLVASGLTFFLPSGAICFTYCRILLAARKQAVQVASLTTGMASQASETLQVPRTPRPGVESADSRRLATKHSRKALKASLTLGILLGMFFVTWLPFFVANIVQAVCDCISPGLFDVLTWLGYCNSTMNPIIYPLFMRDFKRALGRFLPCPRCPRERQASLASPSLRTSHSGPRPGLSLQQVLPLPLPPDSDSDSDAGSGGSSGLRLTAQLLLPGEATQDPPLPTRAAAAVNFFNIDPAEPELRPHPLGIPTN
Sequence of Beta-1 adrenergic receptor (Homo sapiens) (P08588 whole entry, looked up): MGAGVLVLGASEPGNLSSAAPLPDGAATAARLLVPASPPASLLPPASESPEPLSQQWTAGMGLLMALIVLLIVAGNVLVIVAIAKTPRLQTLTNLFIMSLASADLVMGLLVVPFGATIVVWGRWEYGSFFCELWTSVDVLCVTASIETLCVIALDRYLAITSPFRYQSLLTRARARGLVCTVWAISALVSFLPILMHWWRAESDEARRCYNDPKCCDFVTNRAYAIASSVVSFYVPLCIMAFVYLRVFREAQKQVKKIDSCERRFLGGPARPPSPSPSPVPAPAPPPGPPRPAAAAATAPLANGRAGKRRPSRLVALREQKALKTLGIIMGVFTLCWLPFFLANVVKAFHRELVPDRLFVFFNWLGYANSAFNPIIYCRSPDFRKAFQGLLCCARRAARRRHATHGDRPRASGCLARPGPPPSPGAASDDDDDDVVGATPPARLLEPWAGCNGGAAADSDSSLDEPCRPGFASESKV
Sequence of Beta-3 adrenergic receptor (Homo sapiens) (P13945 whole entry, looked up): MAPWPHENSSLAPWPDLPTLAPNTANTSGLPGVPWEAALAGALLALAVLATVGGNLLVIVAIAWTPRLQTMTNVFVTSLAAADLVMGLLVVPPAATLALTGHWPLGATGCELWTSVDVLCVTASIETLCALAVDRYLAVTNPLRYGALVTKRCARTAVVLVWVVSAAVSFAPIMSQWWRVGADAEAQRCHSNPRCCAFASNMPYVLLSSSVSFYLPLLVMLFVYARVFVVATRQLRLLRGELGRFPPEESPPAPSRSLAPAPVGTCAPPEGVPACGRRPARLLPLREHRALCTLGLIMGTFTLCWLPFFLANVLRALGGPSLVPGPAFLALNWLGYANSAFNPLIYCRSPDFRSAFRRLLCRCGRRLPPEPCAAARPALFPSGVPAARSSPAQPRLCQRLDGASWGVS
Sequence of Sodium-dependent serotonin transporter (Homo sapiens) (P31645 whole entry, looked up): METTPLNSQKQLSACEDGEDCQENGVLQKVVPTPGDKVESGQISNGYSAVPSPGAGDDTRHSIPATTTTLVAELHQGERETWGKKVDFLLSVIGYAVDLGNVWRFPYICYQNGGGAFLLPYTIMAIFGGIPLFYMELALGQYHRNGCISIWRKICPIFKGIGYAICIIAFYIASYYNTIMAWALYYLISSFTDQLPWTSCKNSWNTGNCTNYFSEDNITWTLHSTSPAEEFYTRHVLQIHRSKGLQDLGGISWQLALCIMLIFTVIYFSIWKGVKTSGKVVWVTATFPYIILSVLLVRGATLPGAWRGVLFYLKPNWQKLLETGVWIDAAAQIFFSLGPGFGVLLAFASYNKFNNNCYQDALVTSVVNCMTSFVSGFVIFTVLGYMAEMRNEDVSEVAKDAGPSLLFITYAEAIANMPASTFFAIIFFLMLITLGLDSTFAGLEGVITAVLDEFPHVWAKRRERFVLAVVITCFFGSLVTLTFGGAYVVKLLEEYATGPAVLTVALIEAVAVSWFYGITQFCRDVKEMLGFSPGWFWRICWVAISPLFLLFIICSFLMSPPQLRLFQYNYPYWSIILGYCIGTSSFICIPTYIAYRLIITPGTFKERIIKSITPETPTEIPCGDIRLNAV
Sequence of Adenosine receptor A3 (Homo sapiens) (P0DMS8 whole entry): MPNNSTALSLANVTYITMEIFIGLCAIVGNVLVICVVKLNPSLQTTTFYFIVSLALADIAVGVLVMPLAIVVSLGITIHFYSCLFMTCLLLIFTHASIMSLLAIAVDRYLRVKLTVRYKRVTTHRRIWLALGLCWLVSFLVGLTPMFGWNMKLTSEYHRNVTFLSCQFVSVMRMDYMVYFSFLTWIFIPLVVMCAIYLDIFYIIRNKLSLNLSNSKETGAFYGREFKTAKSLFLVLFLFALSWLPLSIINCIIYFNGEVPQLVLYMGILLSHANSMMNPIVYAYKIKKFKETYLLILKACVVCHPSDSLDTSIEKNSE

With `O[C@]1(C(F)(F)F)CCCC[C@H]1Nc1ccc(F)cc1` [BAY-390], the inhibition in [1] was 15.6%; in [3] it was 4%; in test [4], -6%; in test [5] it was 1%; in [6] it was 16%; in the test listed under Oryctolagus cuniculus it was 3%. Moreover, the inhibition in test [7] is -4%; in test [8], -2%; in test [9], 18%; in [11] it was 1%; in test [12], 5%; in test [13] it was 36.2%. The inhibition in [14] was 7%; in [15], 3%; in test [16], 65%; in [17], 4%; in [18] it was 6%; in [19], 3%. Further, the inhibition in test [20] was 3%; in test [21] it was 5%; in test [22], 10%; in the test listed under Rattus norvegicus it was -5%; in test [23], 3%; in test [24], -3%. In addition, the figures for the inhibition in test [25] and in test [26] were -4% and 4%, respectively. Besides, the figures for the IC50 (in test [2]; at Estrogen receptor) were 68 nM (active) and 2500 nM, respectively. The results for the Ki (in test [10]; at Estrogen receptor) were 2580 nM and 720 nM, respectively.

On to `COc1cc(N[C@@H]2CCCC[C@]2(O)C(F)(F)F)ccc1F` [BAY-9897], for which the inhibition in test [27] was -4.02%; in test [28], -4.34%; in [29], -2.34%.
